From patent US20230131111A1, “BIODEGRADABLE POLYIMIDAZOLIUMS AND OLIGOIMIDAZOLIUMS” (Nanyang Technological University, priority 2020, published 2023)

Experiments:
P. aeruginosa PAO1 = assay: MIC90 broth microdilution; assay type: cell-based, Pseudomonas aeruginosa
MRSA BAA39 = assay: MIC broth microdilution; assay type: cell-based, Staphylococcus aureus
S. aureus (SA) = assay: MIC broth microdilution; assay type: cell-based, Staphylococcus aureus
E. coli (EC) = assay: MIC broth microdilution; assay type: cell-based, Escherichia coli
3T3 cells = assay: Mammalian cell cytotoxicity, MTT; assay type: cell-based, Mouse; settings: mouse embryonic fibroblast 3T3 cells, MTT
MRSA BAA39 biofilm = assay: MBEC antibiofilm assay; settings: 4 h treatment
Protocol: (§1) The MBEC was measured using micro-titre plate-based technology. Briefly, 160 μL of MRSA BAA39 or P. aeruginosa O1 suspension (cell density at ˜10^7 CFU/mL) was added into the 96-well growth plate covered by a lid containing MBEC pegs. Biofilm were grown on the peg lid after incubation at 37° C. for 24-48 h. After removing planktonic bacteria by washing with PBS twice, the lid with biofilm were transferred into the challenge plate which contained two-fold serial dilutions of one of P1-P6 solution, with total volume of 200 μL in each well. The treatment was performed at room temperature for 4 h. After that, the peg lid was washed again with PBS and transferred to a recovery plate which contained PBS (200 μL) in each well. Biofilm bacteria that survived were dislodged from the peg lid by sonication for 30±5 min, and detached bacteria were then 10-fold serial-diluted in sterile PBS and spread on agar plates. After incubation at 37° C. for 24 h, the colonies were counted.

P. aeruginosa O1 biofilm = assay: MBEC antibiofilm assay; settings: 4 h treatment
Protocol: as §1

Benzalkonium chloride [C3]
MIC PAO1 (P. aeruginosa PAO1): 128 µg/mL | MIC MRSA BAA39 (MRSA BAA39): 1 µg/mL | MIC SA (S. aureus (SA)): 1 to 2 µg/mL | MIC EC (E. coli (EC)): 16 µg/mL | IC50 (3T3 cells): 10 µg/mL | antibiofilm efficacy rank (MRSA BAA39 biofilm): P(ImC8)>P(ImC8-co-ImC8D)-50%˜P(ImC6)>BAC | antibiofilm potency order (P. aeruginosa O1 biofilm): P(ImC8)>P(ImC8-co-ImC8D)-50%>P(ImC6)>BAC
